This is an account of results in PubChem BioAssay (NCI).

Test in all cases: NCI-60 cell line screen, 48 h
For assay [1], the system named is NCI-H460 lung.
Assay [2] relates to SNB-19 CNS.
The test system of assay [3] is LOX IMVI melanoma.
The test system of assay [4] is NCI/ADR-RES ovarian.
Assay [5] has as its system DU-145 prostate.
In assay [6] the test system is MALME-3M melanoma.
For assay [7], the system named is HS 578T breast.
Assay [8] deals with UACC-257 melanoma.
Assay [9] concerns HOP-62 NSCLC.
Assay [10] deals with HCT-116 colon.
Assay [11] deals with SK-MEL-2 melanoma.

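Five concentrations, 48 hours, 96-well plates. TGI: total growth inhibition.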 A value given as a limit tells only on which side of the number the result lay.

Turning to `COc1ccc(/C=C2\Sc3nnc(C)n3N=C2c2cc(F)c(Cl)cc2Cl)cc1OC`, the TGI in assay [1] worked out at 53.1 µM; in assay [2] it was 11.8 µM; in [3], 31.4 µM; in assay [4], 35.6 µM; in [5], 27.8 µM; in assay [6], 37.1 µM. For the same compound, the TGI was more than 100 µM in [7]; 32.5 µM in assay [8]; 33.3 µM in [9]; 18.5 µM in assay [10]; 33.6 µM in assay [11].
`O=c1[nH]nc(-c2ccc([N+](=O)[O-])cc2)n1/N=C/c1ccc([N+](=O)[O-])cc1`: the TGI is more than 100 µM in assay [1]; more than 100 µM in assay [2]; 34.4 µM in assay [3]; more than 100 µM in assay [4]; more than 100 µM in assay [5]; more than 100 µM in assay [6]. Further, the TGI in assay [7], in assay [8], in assay [9], in assay [10] and in assay [11] was more than 100 µM in each case.
As for `Cc1c(C#N)c2nnn(-c3ccc([N+](=O)[O-])cc3)c(=O)n2c1-c1ccccc1`, the TGI turned out to be 26.5 µM in assay [1]; 36.7 µM in assay [2]; 22 µM in assay [3]; 65.5 µM in [4]; 26.1 µM in [5]; 30.7 µM in assay [6]. In addition, the TGI in [7] is more than 100 µM; in assay [8] it was 47.6 µM; in assay [9] it was 19.8 µM; in assay [10], 19 µM; in assay [11], 22 µM.
Turning to `CC(/C=N/N(C)C1=NCCCCN1)=N/N(C)C1=NCCCCN1`, the TGI in [1], in assay [2], in assay [3], in assay [4], in [5] and in assay [6] was more than 100 µM each time. The TGI in assay [7], in assay [8], in [9], in [10] and in assay [11] was more than 100 µM each time.
Consider `O=C1OC(C2Cc3ccccc3C2=O)c2ccccc21` (stereo not given), for which the TGI in assay [1], in assay [2], in [3], in [4], in assay [5] and in [6] was more than 100 µM throughout. Besides, the TGI in [7], in [8], in [9], in assay [10] and in assay [11] was more than 100 µM in each case.
